According to the supplement of paper PMC10883282:

Legend:
Experiment in all cases: relative viability vs DMSO control (72 h) (fraction); higher = more viable cells
HT1080 = system: HT1080
Summary of the method: (§1)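 Relative viability is percent growth read by ATPLite and averaged over up to triplicate wells. Sarcoma cells were seeded in 384-well plates to reach 80–90% confluence and given 2.5 µl of serially diluted compound after 24 h, from source plates of 10 mM to 0.0002 mM. Incubation lasted 72 h at 37 °C, 5% CO2, with 0.1% DMSO vehicle and a 5 µM positive control, and the data were rescaled so 1 equals full and 0 equals none.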

KHOS-NP = system: KHOS-NP
Summary of the method: as §1

SK-ES-1 = system: SK-ES-1
Summary of the method: as §1

RD-ES = system: RD-ES
Summary of the method: as §1

SW982 = system: SW982
Summary of the method: as §1

KHOS-240S = system: KHOS-240S
Summary of the method: as §1

G401 = system: G401
Summary of the method: as §1

A204 = system: A204
Summary of the method: as §1

SW1353 = system: SW1353
Summary of the method: as §1

SW872 = system: SW872
Summary of the method: as §1

SYO-1 = system: SYO-1
Summary of the method: as §1

SW684 = system: SW684
Summary of the method: as §1

O=S(=O)(c1cccc2c(O)nccc12)N1CCCNCC1 [Hydroxyfasudil]
Settings	relative viability
A204, 0.00017 µM	1.08
A204, 0.00051 µM	1.1
A204, 0.00152 µM	1.12
A204, 0.00457 µM	1.1
A204, 0.01372 µM	1.11
A204, 0.04115 µM	1.11
A204, 0.1235 µM	1.11
A204, 0.3704 µM	1.06
A204, 1.111 µM	1.04
A204, 3.333 µM	1.05
A204, 10 µM	0.979
G401, 0.00017 µM	1.02
G401, 0.00051 µM	1.05
G401, 0.00152 µM	1.03
G401, 0.00457 µM	1.05
G401, 0.01372 µM	1.052
G401, 0.04115 µM	1.05
G401, 0.1235 µM	1.03
G401, 0.3704 µM	1.03
G401, 1.111 µM	1.038
G401, 3.333 µM	1.01
G401, 10 µM	0.944
HT1080, 0.00017 µM	1.1
HT1080, 0.00051 µM	1.09
HT1080, 0.00152 µM	1.13
HT1080, 0.00457 µM	1.06
HT1080, 0.01372 µM	1.1
HT1080, 0.04115 µM	1.099
HT1080, 0.1235 µM	1.102
HT1080, 0.3704 µM	1.1
HT1080, 1.111 µM	1.139
HT1080, 3.333 µM	1.1
HT1080, 10 µM	1.1
KHOS-240S, 0.00017 µM	1.1
KHOS-240S, 0.00051 µM	1.1
KHOS-240S, 0.00152 µM	1.1
KHOS-240S, 0.00457 µM	1.11
KHOS-240S, 0.01372 µM	1.1
KHOS-240S, 0.04115 µM	1.1
KHOS-240S, 0.1235 µM	1.11
KHOS-240S, 0.3704 µM	1.1
KHOS-240S, 1.111 µM	1.04
KHOS-240S, 3.333 µM	0.998
KHOS-240S, 10 µM	0.906
KHOS-NP, 0.00017 µM	1.09
KHOS-NP, 0.00051 µM	1.09
KHOS-NP, 0.00152 µM	1.086
KHOS-NP, 0.00457 µM	1.1
KHOS-NP, 0.01372 µM	1.09
KHOS-NP, 0.04115 µM	1.1
KHOS-NP, 0.1235 µM	1.08
KHOS-NP, 0.3704 µM	1.07
KHOS-NP, 1.111 µM	1.07
KHOS-NP, 3.333 µM	1.049
KHOS-NP, 10 µM	1.04
RD-ES, 0.00017 µM	0.996
RD-ES, 0.00051 µM	1.02
RD-ES, 0.00152 µM	1
RD-ES, 0.00457 µM	1.01
RD-ES, 0.01372 µM	1.01
RD-ES, 0.04115 µM	1.011
RD-ES, 0.1235 µM	1.03
RD-ES, 0.3704 µM	1.04
RD-ES, 1.111 µM	1.03
RD-ES, 3.333 µM	1.04
RD-ES, 10 µM	1.06
SK-ES-1, 0.00017 µM	1.09
SK-ES-1, 0.00051 µM	1.09
SK-ES-1, 0.00152 µM	1.06
SK-ES-1, 0.00457 µM	1.05
SK-ES-1, 0.01372 µM	1.07
SK-ES-1, 0.04115 µM	1.1
SK-ES-1, 0.1235 µM	1.06
SK-ES-1, 0.3704 µM	1.08
SK-ES-1, 1.111 µM	1.07
SK-ES-1, 3.333 µM	1.04
SK-ES-1, 10 µM	1.02
SW684, 0.00017 µM	1.16
SW684, 0.00051 µM	1.21
SW684, 0.00152 µM	1.2
SW684, 0.00457 µM	1.16
SW684, 0.01372 µM	1.16
SW684, 0.04115 µM	1.15
SW684, 0.1235 µM	1.14
SW684, 0.3704 µM	1.15
SW684, 1.111 µM	1.12
SW684, 3.333 µM	1.06
SW684, 10 µM	1.02
SW872, 0.00017 µM	1.12
SW872, 0.00051 µM	1.11
SW872, 0.00152 µM	1.09
SW872, 0.00457 µM	1.1
SW872, 0.01372 µM	1.07
SW872, 0.04115 µM	1.11
SW872, 0.1235 µM	1.07
SW872, 0.3704 µM	1.07
SW872, 1.111 µM	1.08
SW872, 3.333 µM	1.03
SW872, 10 µM	0.964
SW982, 0.00017 µM	1.02
SW982, 0.00051 µM	1.05
SW982, 0.00152 µM	1.05
SW982, 0.00457 µM	1.081
SW982, 0.01372 µM	1.05
SW982, 0.04115 µM	1.06
SW982, 0.1235 µM	1.073
SW982, 0.3704 µM	1.06
SW982, 1.111 µM	1.04
SW982, 3.333 µM	1.041
SW982, 10 µM	0.92
SW1353, 0.00017 µM	1.06
SW1353, 0.00051 µM	1.07
SW1353, 0.00152 µM	1.05
SW1353, 0.00457 µM	1.07
SW1353, 0.01372 µM	1.01
SW1353, 0.04115 µM	1.01
SW1353, 0.1235 µM	1.038
SW1353, 0.3704 µM	1.036
SW1353, 1.111 µM	0.96
SW1353, 3.333 µM	0.913
SW1353, 10 µM	0.775
SYO-1, 0.00017 µM	1
SYO-1, 0.00051 µM	0.996
SYO-1, 0.00152 µM	0.97
SYO-1, 0.00457 µM	0.993
SYO-1, 0.01372 µM	0.96
SYO-1, 0.04115 µM	0.96
SYO-1, 0.1235 µM	0.983
SYO-1, 0.3704 µM	0.894
SYO-1, 1.111 µM	0.919
SYO-1, 3.333 µM	0.904
SYO-1, 10 µM	0.846
